# Results taken from PubChem BioAssay (NCI).
#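 Interpolation was linear, between the two tested concentrations surrounding the appropriate level; five concentrations were tested over 48 hours in 96-well plates. TGI is the concentration that stops growth completely.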
# Tests used:
# Assay in all cases: NCI tumour cell line growth inhibition, 48 h
# [1] = tested on: OVCAR-5 ovarian
# [2] = tested on: HCC-2998 colon
# [3] = tested on: SNB-75 CNS
# [4] = tested on: M14 melanoma
# [5] = tested on: LXFL 529 NSCLC
# [6] = tested on: NCI-H23 lung
# [7] = tested on: SK-MEL-28 melanoma
# [8] = tested on: MOLT-4 leukemia
# [9] = tested on: SW-620 colon
# [10] = tested on: IGROV1 ovarian
# [11] = tested on: UACC-62 melanoma
# [12] = tested on: RXF 393 renal
# [13] = tested on: DMS 114 small cell lung
# [14] = tested on: U251 CNS
# [15] = tested on: SF-539 CNS
# [16] = tested on: KM12 colon
# [17] = tested on: HCT-116 colon
# [18] = tested on: MALME-3M melanoma
# [19] = tested on: OVCAR-8 ovarian
# [20] = tested on: OVCAR-4 ovarian
# [21] = tested on: UO-31 renal
# [22] = tested on: NCI-H460 lung
# [23] = tested on: KM20L2 colon
# [24] = tested on: RPMI-8226 leukemia
# [25] = tested on: COLO 205 colon
# [26] = tested on: HCT-15 colon
# [27] = tested on: SNB-19 CNS
# [28] = tested on: DMS 273 small cell lung
# [29] = tested on: HT29 colon
# [30] = tested on: SR leukemia
# [31] = tested on: HOP-62 NSCLC
# [32] = tested on: TK-10 renal
# [33] = tested on: SNB-78 CNS
# [34] = tested on: SN12C renal
# [35] = tested on: SK-OV-3 ovarian
# [36] = tested on: LOX IMVI melanoma
# [37] = tested on: A498 renal
# [38] = tested on: A549 NSCLC
# [39] = tested on: HOP-92 NSCLC
# [40] = tested on: DLD-1 colon
# [41] = tested on: HOP-18 NSCLC
# [42] = tested on: SF-295 CNS
# [43] = tested on: M19-MEL melanoma
# [44] = tested on: SK-MEL-5 melanoma
# [45] = tested on: EKVX NSCLC
# [46] = tested on: SF-268 CNS
# [47] = tested on: NCI-H226 lung
# [48] = tested on: CAKI-1 renal
# [49] = tested on: UACC-257 melanoma
# [50] = tested on: ACHN renal
# [51] = tested on: 786-0 renal
# [52] = tested on: CCRF-CEM leukemia
# [53] = tested on: HL-60(TB) leukemia
# [54] = tested on: NCI-H522 lung
# [55] = tested on: K-562 leukemia
# [56] = tested on: SK-MEL-2 melanoma
structure (smiles),measurement,setting,value
Cn1cnc([N+](=O)[O-])c1Sc1nc2cc(Cl)c(F)cc2[nH]1,TGI,[1],> 100 µM
same,TGI,[2],20.7 µM
same,TGI,[3],39.3 µM
same,TGI,[4],27.6 µM
same,TGI,[5],19.2 µM
same,TGI,[6],31.3 µM
same,TGI,[7],27.3 µM
same,TGI,[8],6.29 µM
same,TGI,[9],22.4 µM
same,TGI,[10],35.8 µM
same,TGI,[11],28.6 µM
same,TGI,[12],9.93 µM
same,TGI,[13],20.7 µM
same,TGI,[14],24 µM
same,TGI,[15],16.7 µM
same,TGI,[16],36.6 µM
same,TGI,[17],20.6 µM
same,TGI,[18],27.5 µM
same,TGI,[19],23.2 µM
same,TGI,[20],21 µM
same,TGI,[21],27.6 µM
same,TGI,[22],27.7 µM
same,TGI,[23],26.9 µM
same,TGI,[24],40.3 µM
same,TGI,[25],22 µM
same,TGI,[26],17.6 µM
same,TGI,[27],> 100 µM
same,TGI,[28],17.2 µM
same,TGI,[29],47.3 µM
same,TGI,[30],12.4 µM
same,TGI,[31],> 100 µM
same,TGI,[32],33 µM
same,TGI,[33],25.9 µM
same,TGI,[34],29.7 µM
same,TGI,[35],61.9 µM
same,TGI,[36],39.7 µM
same,TGI,[37],51 µM
same,TGI,[38],54.3 µM
same,TGI,[39],28.9 µM
same,TGI,[40],22.7 µM
same,TGI,[41],29 µM
same,TGI,[42],> 100 µM
same,TGI,[43],23.9 µM
same,TGI,[44],24 µM
same,TGI,[45],16.5 µM
same,TGI,[46],29.5 µM
same,TGI,[47],33 µM
same,TGI,[48],14.4 µM
same,TGI,[49],25.2 µM
same,TGI,[50],34.1 µM
CCCNC1CC(n2cc(C)c(=O)[nH]c2=O)OC1CO (configuration not stated),TGI,[51],> 100 µM
same,TGI,[2],> 100 µM
same,TGI,[3],> 100 µM
same,TGI,[4],> 100 µM
same,TGI,[5],> 100 µM
same,TGI,[6],> 100 µM
same,TGI,[7],> 100 µM
same,TGI,[8],> 100 µM
same,TGI,[10],> 100 µM
same,TGI,[11],> 100 µM
same,TGI,[13],> 100 µM
same,TGI,[15],> 100 µM
same,TGI,[17],> 100 µM
same,TGI,[18],> 100 µM
same,TGI,[20],> 100 µM
same,TGI,[21],> 100 µM
same,TGI,[22],> 100 µM
same,TGI,[52],> 100 µM
same,TGI,[24],> 100 µM
same,TGI,[25],> 100 µM
same,TGI,[28],> 100 µM
same,TGI,[30],> 100 µM
same,TGI,[31],> 100 µM
same,TGI,[33],> 100 µM
same,TGI,[34],> 100 µM
same,TGI,[35],> 100 µM
same,TGI,[53],> 100 µM
same,TGI,[39],> 100 µM
same,TGI,[40],> 100 µM
same,TGI,[54],> 100 µM
same,TGI,[55],> 100 µM
same,TGI,[43],> 100 µM
same,TGI,[56],> 100 µM
same,TGI,[46],> 100 µM
same,TGI,[47],> 100 µM
same,TGI,[48],> 100 µM
same,TGI,[50],> 100 µM
